From patent publication US20240271099A1, “METHOD FOR GENERATING HIGHLY FUNCTIONAL HEPATOCYTES BY DIFFERENTIATING HEPATOBLASTS” (INSTITUT NATIONAL DE LA SANTÉ ET DE LA RECHERCHE MÉDICALE, priority 2021, published 2024)

Tested on: Glucose-6-Phosphatase activity
Experiment: Glycogenolysis (glucose release after glucagon)
Format: cell-based, human
Details: 3D spheroids, 10 nmol/L glucagon, 3 h
Procedure: Glycogen Glucose metabolism. iHeps in 2D and 3D culture were investigated to assess the glycogen storage and glucose homeostasis regulation. Briefly, at specific time points along the 2D and 3D cultures, cells were treated for 3 h with a homemade low-glucose medium with or without 10 nmol/L glucagon (Sigma-Aldrich) to induce glucose release from the glycogen storage. Media samples were then collected and glucose concentration was determined using the High Sensitivity Glucose Assay Kit (Sigma). Periodic acid-Schiff (PAS) staining was then carried out on 2D and 8 μm cryosections of the very same samples. Specimens were fixed for 10 minutes at room temperature with 4% formol then treated with 1% periodic acid solution (Sigma-Aldrich) for 10 minutes. After washing, slides were immersed in Schiff's reagent (Fisher Scientific) for 30 minutes at RT. Before counterstaining with Mayer's Hematoxylin (Sigma), samples were washed carefully with Scott's tap water.
To investigate further, 3D specimens (iHeps and PHHs) were incubated for 4 h with 25 mM D-Glucose and 100 nM insulin to mimic hyperglycemia. Glycogen synthesis and storage were then determined using the Periodic Acid-Schiff (PAS) Staining Kit (Sigma-Aldrich) as described above. […] The media were then collected, and glucose levels determined using the High Sensitivity Glucose Assay Kit (Sigma).

glucagon
glycogenolysis, times higher than basal release (w/o glucagon): 3 times
